Measurements reported in US11439658B2, “Compositions and methods for suppressing MSUT2” (United States Government As Represented By The Department …, priority 2018, dated 2022).
One block for each molecule: values may come before it.

Tests used:
[1] = molecular target: T1, recombinant GST-MSUT2 binding to synthetic poly(A) RNA (Homo sapiens, UniProt Q6PJT7); assay: MSUT2/poly(A) RNA AlphaScreen assay; settings: dose validated hits of pilot AlphaScreen
T1 construct: fused on or other part: GST at the N-terminus (pGEX6P-1 vector)
T1 sequence (Q6PJT7 595-719 limits assumed): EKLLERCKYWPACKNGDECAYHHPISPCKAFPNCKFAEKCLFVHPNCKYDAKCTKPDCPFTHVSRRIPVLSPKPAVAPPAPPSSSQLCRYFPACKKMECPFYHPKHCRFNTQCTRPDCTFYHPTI
Protocol: To identify small-molecule inhibitors of the MSUT2 protein/poly(A) RNA interaction, a high-throughput AlphaScreen assay optimized for detecting recombinant GST-MSUT2 binding to synthetic poly(A) RNA. The MSUT2 AlphaScreen assay has been well optimized during its development for 384-well screening (z-score=0.96). Two high throughput AlphaScreens of 53,400 distinct small molecules have been completed. A multi-point dose analysis pilot screen of the Spectrum Collection was performed. […] Both the pilot screen and the screening approaches disclosed herein use the Quellos High-Throughput Screening Core at the University of Washington (UW).
Assay of inhibitor dose dependence. Hits identified in the pilot screen were validated by retesting resynthesized compounds over a wide concentration range. […] These hits will be validated by conducting a 14-point dose-response analysis with a drug concentration range from 100 μM down to 1.4 nM; the MSUT2/poly(A) RNA AlphaScreen Assay will be used to produce a readout. From this dose-response analysis, IC50 values will be calculated for dose-responsive hits. For the full scale screen 64 primary hits were identified and will be subject to dose validation as described for pilot screen compounds (and Ebselen, shown in FIG. 20).
The steps and set up for performing the ALPHA assay for MSUT2 binding to polyA are as follows: • 1. Dilutions are in assay buffer (1×PAMA final concentration). • 2. Scale is for 96 well assay in PE […] ½ area plate (total volume/well is 50 μL). • 3. Assays set up in low light conditions • 4. Add 20 μL of diluted donor bead (10 ug/mL) to well bringing well volume to 20 μL • 5. Add 10 μL diluted biotin RNA (15 nM)) bringing well volume to 30 μL • 6. Add 10 μL diluted GST-MSUT2 Protein (125 nM)) bringing well volume to 40 μL • 7. Incubate at room temp for 30 minutes in the dark • 8. Add 10 μl of diluted Acceptor bead (2.5 μg/mL) to well bringing well volume to 50 • 9. Incubate at room temp for 60 minutes in the dark • 10. Read Plate using standard AlphaAssay settings on Perkin Elmer EnSpire® Alpha microplate reader

[2] = tested on: wild type or MSUT2 KO mice; assay: Kainic acid induced gliosis in mice; assay type: in vivo, mouse; settings: hippocampi 3 days after single 25 mg/kg i.p.
Protocol: Shown are the hippocampi of wild type or MSUT2 KO mice 3 days after KA treatment (a single dose of 25 mg/kg KA administered i.p.). […] Scale bar=500 μm.

[3] = molecular target: biotinylated poly(A)15 RNA; assay: Surface plasmon resonance (Biacore) binding to poly(A) RNA; settings: poly(A)15, five protein concentrations 1-0.6 μM
Protocol: Surface plasmon pesonance. SPR experiments were conducted on a Biacore T200 using the Biotin Capture Kit Series S following the manufacturer's instructions (GE). Biotin capture reagent was applied to the sensor chip at a flow rate of 2 μl/minute for 300 seconds. 1 nM biotinylated RNA (BiotinTEG-AAAAAAAAAAAAAAA; SEQ ID NO: 25) was captured at a flow rate of 10 μl/minute for 180 seconds. Samples were flowed across the sensor chip at 50 μl/minute for 120 seconds and the chip was regenerated for 120 seconds at a flow rate of 10 μl/minute. KD values for binding and disassociation were calculated from the binding kinetics of each protein at five concentrations using the Biacore T200 Software v3.1 application package (GE; 1, 0.9, 0.8, 0.7, 0.6 μM).

Molecule: O=S(=O)(O)c1cc(N=C=S)ccc1C=Cc1ccc(N=C=S)cc1S(=O)(=O)O [4,4′-Diisothiocyano-stilbene-2,2′ sulfonic acid]
IC50 [1]: 6800 nM

Molecule: O=c1c2ccccc2[se]n1-c1ccccc1 [Ebselen]
IC50 [1]: 1600 nM

Molecule: C=C(C)[C@H]1CN[C@H](C(=O)O)[C@H]1CC(=O)O [Kainic Acid]
gliotic response (astrocytosis, IHC for GFAP) [2]: obvious and strong gliotic response

Second part, the molecule after the results:

IC50 [1]: 1700 nM
Molecule: COc1cc2c(cc1OC)-c1cc3ccc(OC)c(OC)c3c[n+]1CC2 [Palmatine]

Kd [3]: 237 ± 21 nM
B1: PABPN1: recombinant polyadenylate-binding nuclear protein 1 (protein, UniProt Q86U42 2-306, looked up)
Polyadenylate-binding protein …: AAAAAAAAAAGAAGGRGSGPGRRRHLVPGAGGEAGEGAPGGAGDYGNGLESEELEPEELLLEPEPEPEPEEEPPRPRAPPGAPGPGPGSGAPGSQEEEEEPGLVEGDPGDGAIEDPELEAIKARVREMEEEAEKLKELQNEVEKQMNMSPPPGNAGPVIMSIEEKMEADARSIYVGNVDYGATAEELEAHFHGCGSVNRVTILCDKFSGHPKGFAYIEFSDKESVRTSLALDESLFRGRQIKVIPKRTNRPGISTTDRGFPRARYRARTTNYNSSRSRFYSGFNSRPRGRVYRGRARATSWYSPY

Kd [3]: 60 ± 15 nM
B2: MSUT2: recombinant mammalian suppressor of tauopathy 2, poly(A) RNA binding protein (protein)
chain: MEIGTEISRKIRSAIKGKLQELGAYVDEELPDYIMVMVANKKSQDQMTEDLSLFLGNNTIRFTVWLHGVLDKLRSVTTEPSSLKSSDTNIFDSNVPSNKSNFSRGDERRHEAAVPPLAIPSARPEKRDSRVSTSSQESKTTNVRQTYDDGAATRLMSTVKPLREPAPSEDVIDIKPEPDDLIDEDLNFVQENPLSQKKPTVTLTYGSSRPSIEIYRPPASRNADSGVHLNRLQFQQQQNSIHAAKQLDMQSSWVYETGRLCEPEVLNSLEETYSPFFRNNSEKMSMEDENFRKRKLPVVSSVVKVKKFNHDGEEEEEDDDYGSRTGSISSSVSVPAKPERRPSLPPSKQANKNLILKAISEAQESVTKTTNYSTVPQKQTLPVAPRTRTSQEELLAEVVQGQSRTPRISPPIKEEETKGDSVEKNQGTQQRQLLSRLQIDPVMAETLQMSQDYYDMESMVHADTRSFILKKPKLSEEVVVAPNQESGMKTADSLRVLSGHLMQTRDLVQPDKPASPKFIVTLDGVPSPPGYMSDQEEDMCFEGMKPVNQTAASNKGLRGLLHPQQLHLLSRQLEDPNGSFSNAEMSELSVAQKPEKLLERCKYWPACKNGDECAYHHPISPCKAFPNCKFAEKCLFVHPNCKYDAKCTKPDCPFTHVSRRIPVLSPKPAVAPPAPPSSSQLCRYFPACKKMECPFYHPKHCRFNTQCTRPDCTFYHPTINVPPRHALKWIRPQTSE
